Measurements reported in US20130085182A1, “SODIUM 2-MERCAPTOETHANE SULFONATE FOR USE IN THE TREATMENT OF LUMBAR PAIN” (UNIVERSITA' CAMPUS BIO-MEDICO DI ROMA, priority 2010, published 2013).

How the values were obtained:
Type in all cases: in vivo, human
[1] = system: patients suffering from FBSS (lumbar pain); assay: Clinical study: pain evaluation by Numeric Rating Scales (NRS) after peridural infiltration; details: 11 FBSS patients, epidural 1 ml of 50 or 100 mg/ml, +1 week
From the text: 11 patients (7 males and 4 females), of ages ranging between 48 and 78 years, and suffering from FBSS, were studied (according to the operative diagram in FIG. 1) for a 9-month period. As criteria for inclusion in the treatment protocol were considered: • failed back surgery syndrome (FBSS) • lumbar pain present for >3 months • absence of improvement of pain with administration of oral pharmacological analgesics/opioids-based therapy; • non-eligibility for lumbar revision surgery treatment. • patients refusing treatment; • carriers of infections localized at the level of the infiltration site; • undergoing systemic infective processes; • coagulation alterations. After having been evaluated under the clinical instrumental standpoint, the patient was subjected to infiltrative treatment upon coagulation testing and replacement of oral anticoagulant therapy (possibly taken by the patient), with low molecular weight heparin. Infiltration was conducted in Day Surgery regimen, inviting the patient to have it on an empty stomach. […] The drug at issue, sodium 2-mercaptoethansulfonate, was contained in an ampoule with a 10% concentration; for each infiltration, 1 ml was collected and the concentration used was of 50 mg/ml in some cases and of 100 mg/ml in other cases. The entire infiltration procedure required 10-15 min. Of the 11 patients, 2 had already undergone 3 surgical interventions to the lumbar rachis, other 2 had undergone 2 interventions, and 7 had undergone 1 intervention. […] In particular, we asked to assign a value (comprised between 0 and 10) to pain intensity in a standing position, in horizontal posture, and while sitting; evaluation of the 3 parameters helped us in pain classification, and was aimed at determining musculoskeletal and gravity activation at different instants and the quantitative impact on pain intensity caused by the assuming of the different positions. […] To the first answer a score equal to 0 was assigned, to the second one equal to 1, and so on until the sixth answer that would be equal to 5. the score is calculated as follows: TOTAL SCORE/(5×9)×100.

[2] = system: patients suffering from FBSS (lumbar pain); assay: Clinical study: lumbar rachis functionality by Oswestry Disability Index (ODI); details: 11 FBSS patients; epidural 1 ml of 50 or 100 mg/ml; +1 week; before the procedure 52.18%; P=0.05
From the text: 11 patients (7 males and 4 females), of ages ranging between 48 and 78 years, and suffering from FBSS, were studied (according to the operative diagram in FIG. 1) for a 9-month period. As criteria for inclusion in the treatment protocol were considered: • failed back surgery syndrome (FBSS) • lumbar pain present for >3 months • absence of improvement of pain with administration of oral pharmacological analgesics/opioids-based therapy; • non-eligibility for lumbar revision surgery treatment. • patients refusing treatment; • carriers of infections localized at the level of the infiltration site; • undergoing systemic infective processes; • coagulation alterations. After having been evaluated under the clinical instrumental standpoint, the patient was subjected to infiltrative treatment upon coagulation testing and replacement of oral anticoagulant therapy (possibly taken by the patient), with low molecular weight heparin. […] In particular, we asked to assign a value (comprised between 0 and 10) to pain intensity in a standing position, in horizontal posture, and while sitting; evaluation of the 3 parameters helped us in pain classification, and was aimed at determining musculoskeletal and gravity activation at different instants and the quantitative impact on pain intensity caused by the assuming of the different positions. […]

[3] = system: patients suffering from FBSS (lumbar pain); assay: Clinical study: functional improvement by Odom's criteria; details: out of 11 FBSS patients; after epidural infiltration
From the text: 11 patients (7 males and 4 females), of ages ranging between 48 and 78 years, and suffering from FBSS, were studied (according to the operative diagram in FIG. 1) for a 9-month period. As criteria for inclusion in the treatment protocol were considered: • failed back surgery syndrome (FBSS) • lumbar pain present for >3 months • absence of improvement of pain with administration of oral pharmacological analgesics/opioids-based therapy; • non-eligibility for lumbar revision surgery treatment. • patients refusing treatment; • carriers of infections localized at the level of the infiltration site; • undergoing systemic infective processes; • coagulation alterations. After having been evaluated under the clinical instrumental standpoint, the patient was subjected to infiltrative treatment upon coagulation testing and replacement of oral anticoagulant therapy (possibly taken by the patient), with low molecular weight heparin. Infiltration was conducted in Day Surgery regimen, inviting the patient to have it on an empty stomach. […] The drug at issue, sodium 2-mercaptoethansulfonate, was contained in an ampoule with a 10% concentration; for each infiltration, 1 ml was collected and the concentration used was of 50 mg/ml in some cases and of 100 mg/ml in other cases. The entire infiltration procedure required 10-15 min. Of the 11 patients, 2 had already undergone 3 surgical interventions to the lumbar rachis, other 2 had undergone 2 interventions, and 7 had undergone 1 intervention. In particular, 4 had undergone an herniectomy, 2 an hemilaminectomy, 2 an herniectomy plus an hemilaminectomy and 3 a vertebral stabilization intervention. The levels involved were comprised between L1 and S1, with an extension range of 2 to 5 levels. Each patient was subjected, on average, to 2 (range comprised between 1 and 4) peridural infiltrations of sodium 2 mercaptoethane sulfonate (FIG. 2).

O=S(=O)([O-])CCS.[Na+] [sodium 2-mercaptoethane sulfonate, Sodium 2-mercaptoethane sulfonate]
mean pain NRS (0-10) in a sitting position following the procedure ([1]; on average 2 infiltrations, pre-procedure mean 7.0, P=0.002): 5.55
mean pain NRS (0-10) in a horizontal position following the procedure ([1]; pre-procedure mean 6.64, P=0.001): 4.82
mean pain NRS (0-10) standing following the procedure ([1]; pre-procedure mean 7.36, P=0.01): 5.73
Oswestry Disability Index (ODI), average after the procedure [2]: 41.64%
Odom's criteria: number of patients with Excellent result [3]: 0 patients
Odom's criteria: number of patients with Fair result [3]: 4 patients
Odom's criteria: number of patients with Good result [3]: 7 patients
Odom's criteria: number of patients with Poor result [3]: 0 patients
Odom's criteria: share of patients with Fair result [3]: 36.4%
Odom's criteria: share of patients with Good result [3]: 63.6%
